Data on 18 compounds can be found in ChEMBL document CHEMBL1806435, “Discovery of bacterial NAD+-dependent DNA ligase inhibitors: optimization of antibacterial activity” (Bioorg Med Chem Lett, 2011).

Values after ≈ are worked out from the molar mass of the structure shown. Where only a bound is given, the exact number is not on record here.

A short description of series [1]: Inhibition of Escherichia coli LigA by FRET-based assay.
Series [2] is described as follows: Inhibition of Streptococcus pneumoniae LigA by FRET-based assay.
Series [3] deals with Streptococcus pneumoniae. Kind of series: Antibacterial activity against Streptococcus pneumoniae. The format is functional.
Series [4] in a line: Inhibition of […] LigA by FRET-based assay. Details: species or system Haemophilus influenzae.
Series [5] is described as follows: Inhibition of Staphylococcus aureus LigA by FRET-based assay.
The test system of series [6] is Staphylococcus aureus. Kind of series: Antibacterial activity against Staphylococcus aureus. The format is functional.
The nature of series [7]: Plasma protein binding in human assessed as fraction unbound by equilibrium dialysis method. It counts as ADME, cell-free.
Series [8] relates to Haemophilus influenzae. Kind of series: Antibacterial activity against efflux pump-deficient Haemophilus influenzae. The format is functional.
The target in series [9] is DNA ligase 1 (Homo sapiens, UniProt P18858). In words: Inhibition of human DNA Ligase I by FRET-based assay.
DNA ligase 1, sequence (P18858 whole entry): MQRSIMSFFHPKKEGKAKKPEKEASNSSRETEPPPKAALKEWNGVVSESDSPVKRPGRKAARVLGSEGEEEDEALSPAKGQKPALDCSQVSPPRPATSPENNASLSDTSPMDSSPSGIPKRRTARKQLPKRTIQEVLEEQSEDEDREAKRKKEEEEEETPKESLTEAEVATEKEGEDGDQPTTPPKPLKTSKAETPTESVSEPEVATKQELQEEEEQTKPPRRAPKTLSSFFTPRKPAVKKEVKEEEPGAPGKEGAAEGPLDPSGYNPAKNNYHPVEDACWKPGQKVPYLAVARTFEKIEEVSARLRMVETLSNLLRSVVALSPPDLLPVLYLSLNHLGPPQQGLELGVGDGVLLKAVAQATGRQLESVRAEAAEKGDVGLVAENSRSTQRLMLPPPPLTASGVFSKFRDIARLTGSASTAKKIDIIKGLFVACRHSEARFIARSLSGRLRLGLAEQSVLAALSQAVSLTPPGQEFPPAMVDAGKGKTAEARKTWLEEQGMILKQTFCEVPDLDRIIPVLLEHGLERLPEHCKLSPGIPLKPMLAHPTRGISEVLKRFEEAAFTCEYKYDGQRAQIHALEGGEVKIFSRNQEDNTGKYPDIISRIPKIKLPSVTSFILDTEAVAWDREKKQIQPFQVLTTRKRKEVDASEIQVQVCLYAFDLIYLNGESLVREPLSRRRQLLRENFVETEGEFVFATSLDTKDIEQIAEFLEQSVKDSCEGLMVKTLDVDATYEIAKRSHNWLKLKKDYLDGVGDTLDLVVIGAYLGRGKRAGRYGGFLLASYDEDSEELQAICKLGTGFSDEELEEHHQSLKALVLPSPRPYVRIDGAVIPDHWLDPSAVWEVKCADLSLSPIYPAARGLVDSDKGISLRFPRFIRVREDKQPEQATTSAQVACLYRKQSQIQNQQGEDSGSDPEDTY
The nature of series [10]: Apparent permeability from apical to basolateral side in human Caco2 cells. It counts as ADME, cell-based. To be noted: Caco-2. For orientation: Passage across Caco-2 layers is used to estimate intestinal permeability.
The nature of series [11]: Lipophilicity, log D of the compound in octanol buffer at pH 7.4 by shake flask method. It counts as physicochemical.
Series [12] in a line: Equilibrium solubility of the compound. It counts as physicochemical.

As usually defined, the IC50 is the point on the concentration scale where inhibition reaches its midpoint. Broadly, the fraction unbound is the share of the substance not bound to proteins or other matrix. Take `CCCCSc1nc(N)c2ncn([C@@H]3O[C@H](CO)[C@@H](O)[C@H]3O)c2n1`: the IC50 in [1] was 1.27 µM; in series [2], 0.14 µM; in [4] it was 0.51 µM; in series [5], 0.08 µM; in series [9] it was more than 200 µM. The MIC is 32 µg/mL (≈ 90 µM) in series [3], more than 64 µg/mL in series [6] and 32 µg/mL (≈ 90 µM) in series [8]. Further, in series [7], the fraction unbound is 0.003.
For the compound `CCCCSc1nc(N)c2ncn([C@@H]3O[C@H](C)[C@@H](O)[C@H]3O)c2n1`, the IC50 in series [2] stood at 0.13 µM; in series [5] it was 0.17 µM. Moreover, the MIC in [3] is 8 µg/mL (≈ 23.6 µM); in series [6], 64 µg/mL (≈ 189 µM).
Turning to `Nc1nc(OC2CCCC2)nc2c1ncn2[C@@H]1O[C@H](CO)[C@@H](O)[C@H]1O`, the IC50 in [2] is 0.15 µM; in series [5] it was 0.43 µM. The MIC in series [3] worked out at 16 µg/mL (≈ 45.5 µM); in series [6], 64 µg/mL (≈ 182 µM). Besides, the fraction unbound in series [7] turned out to be 0.66.
With `Nc1nc(OC2CCCC2)nc2c1ncn2[C@@H]1O[C@H](CF)[C@@H](O)[C@H]1O`, the IC50 in series [2] and in [5] was 0.12 µM each time. Moreover, the MIC in [3] came to 4 µg/mL (≈ 11.3 µM); in series [6] it was 16 µg/mL (≈ 45.3 µM).
A word on the Papp A→B: it is the apparent permeability from the apical to the basolateral side of a cell layer. For `C[C@H]1O[C@@H](n2cnc3c(N)nc(OC4CCCC4)nc32)[C@H](O)[C@@H]1O`, the IC50 worked out at 0.08 µM in series [2] and 0.12 µM in series [5]. Further, the MIC in series [3] was determined as 2 µg/mL (≈ 5.96 µM); in [6] it was 8 µg/mL (≈ 23.9 µM). Moreover, the Papp A→B in series [10] was 7.26 ×10⁻⁶ cm/s.
Take `Nc1nc(OCC2CCC2)nc2c1ncn2[C@@H]1O[C@H](CF)[C@@H](O)[C@H]1O`: the values for the IC50 in [2] and in [5] were 0.05 µM and 0.06 µM, respectively. Further, the results for the MIC in [3] and in series [6] were 2 µg/mL (≈ 5.66 µM) and 8 µg/mL (≈ 22.6 µM), respectively.
The logD is the decadic logarithm of the distribution of all forms, ionised or not, between an organic phase and buffer at a given pH. As usually defined, the thermodynamic solubility is the concentration in solution at equilibrium with solid. In the case of `C[C@H]1O[C@@H](n2cnc3c(N)nc(O[C@H]4CC[C@H](C)CC4)nc32)[C@H](O)[C@@H]1O`, the logD in series [11] stood at 2.35. Further, the IC50 in [2] was determined as 0.05 µM; in series [5] it was 0.16 µM. Further, the results for the MIC in series [3] and in [6] were 1 µg/mL (≈ 2.75 µM) and 2 µg/mL (≈ 5.5 µM), respectively. Moreover, the solubility (thermodynamic) in series [12] is 934 µM (≈ 339 µg/mL). Also, in [7], the unbound share (fraction unbound) was 0.27.
For `C[C@H]1O[C@@H](n2cnc3c(N)nc(OCC4CC45CC5)nc32)[C@H](O)[C@@H]1O` (some centres undefined), in series [11], the logD was determined as 1.78. In addition, the IC50 in series [2] was determined as 0.04 µM; in series [5] it was 0.06 µM. In addition, the MIC worked out at 1 µg/mL (≈ 2.88 µM) in [3] and 2 µg/mL (≈ 5.76 µM) in series [6]. The thermodynamic solubility in [12] stood at 801 µM (≈ 278 µg/mL). Also, in series [7], the fraction unbound was found to be 0.25.
Consider `C[C@H]1O[C@@H](n2cnc3c(N)nc(OC4CC5CC5C4)nc32)[C@H](O)[C@@H]1O` (some centres undefined), for which the IC50 was 0.06 µM in series [2] and 0.13 µM in series [5]. Further, the results for the MIC in [3] and in [6] were 2 µg/mL (≈ 5.76 µM) and 4 µg/mL (≈ 11.5 µM), respectively.
Taken in the same sequence, the figures for `Nc1nc(OCC2(CO)CC2)nc2c1ncn2[C@@H]1O[C@H](CF)[C@@H](O)[C@H]1O` were 0.4 µM, 0.37 µM, more than 64 µg/mL and more than 64 µg/mL.
Taken in the same sequence, the figures for `C[C@H]1O[C@@H](n2cnc3c(N)nc(Oc4ccccc4)nc32)[C@H](O)[C@@H]1O` were 2.67 µM, 0.14 µM, 64 µg/mL (≈ 186 µM) and 64 µg/mL (≈ 186 µM).
Take `Nc1nc(OCc2nccs2)nc2c1ncn2[C@@H]1O[C@H](CF)[C@@H](O)[C@H]1O`: the IC50 is 0.87 µM in series [2] and 0.91 µM in series [5]. In addition, the MIC in [3] is 64 µg/mL (≈ 167 µM); in series [6] it was more than 64 µg/mL.
Take `C[C@H]1O[C@@H](n2cnc3c(N)nc(OC4CCCC4)nc32)[C@H](O)[C@H]1Cl`: the logD in series [11] was determined as 3.18. The IC50 in series [2] and in [5] was 0.04 µM each time. Further, the MIC in series [3] turned out to be 4 µg/mL (≈ 11.3 µM); in series [6] it was 8 µg/mL (≈ 22.6 µM). The solubility (thermodynamic) in series [12] was found to be 304 µM (≈ 108 µg/mL).
Consider `[N-]=[N+]=N[C@@H]1[C@@H](O)[C@H](n2cnc3c(N)nc(OC4CCCC4)nc32)O[C@@H]1CF`, for which the logD in [11] is 2.65. The IC50 was determined as 0.07 µM in series [2] and 0.09 µM in [5]. The results for the MIC in [3] and in series [6] were 0.5 µg/mL (≈ 1.32 µM) and 8 µg/mL (≈ 21.1 µM), respectively. In [7], the free fraction (fraction unbound) is 0.19.
In the case of `Nc1nc(OC2CCCC2)nc2c1ncn2[C@@H]1O[C@H](CO)[C@H](Cl)[C@H]1O`, the values for the IC50 in series [2] and in series [5] were 0.08 µM and 0.11 µM, respectively. The MIC in series [3] and in series [6] was 8 µg/mL (≈ 21.6 µM) each time.
`C[C@H]1O[C@@H](n2cnc3c(N)nc(OC4CCCC4)nc32)[C@H](O)[C@@H]1OCc1ccc(Cl)c(Cl)c1`: in series [11], the logD is more than 3.5. Besides, the IC50 in series [2] is less than 0.01 µM; in series [5] it was 0.13 µM. Besides, the MIC in [3] was found to be 0.5 µg/mL (≈ 1.01 µM); in series [6], 8 µg/mL (≈ 16.2 µM). Also, in series [12], the thermodynamic solubility was less than 1 µM.
Consider `C[C@H]1O[C@@H](n2cnc3c(N)nc(OCC4CC45CC5)nc32)[C@H](O)[C@H]1Cl` (some centres undefined), for which the logD in [11] was 3.7. Also, the IC50 is 0.02 µM in series [2] and 0.03 µM in series [5]. Moreover, the figures for the MIC in series [3] and in [6] were 0.5 µg/mL (≈ 1.37 µM) and 1 µg/mL (≈ 2.73 µM), respectively. The compound also returned a thermodynamic solubility in [12] of 21 µM (≈ 7.68 µg/mL). Further, in series [7], the unbound share (fraction unbound) turned out to be 0.04.
For `Nc1nc(SC2CCCC2)nc2c1ncn2[C@@H]1O[C@H](CO)[C@@H](O)[C@H]1O`, the IC50 amounted to 0.44 µM in series [2] and 0.38 µM in series [5]. Besides, the MIC in series [3] was 16 µg/mL (≈ 43.5 µM); in [6], 32 µg/mL (≈ 87.1 µM).
